In patent US11203582B2, “Benzamide derivatives for inhibiting endoplasmic reticulum (ER) stress” (The Board of Regents of the University of Oklahoma, priority 2017, dated 2021):

Columns and labels:
Assay type in all cases: cell-based, rat
cleaved PARP = test: Western blotting of cleaved PARP in Tm-treated INS-1 cells; conditions: Tm co-treatment, 24 h
Description: To determine whether the increase in β-cell viability following treatment with 13d is caused by a suppression of apoptotic cell death, several apoptosis-related makers were measured. First, levels of cleaved caspase-3 and cleaved PARP were assayed by Western blotting. Caspase-3, a member of executioner caspases activated by cleavage, plays essential roles in initiating apoptotic signaling and executing the final stages of cell death, whereas the nuclear enzyme poly (ADP-ribose) polymerase (PARP) plays an important role in a number of cellular processes involving DNA repair and cell death. […] However, upon severe ER stress, caspase 3 undergoes proteolytic cleavage to produce two subunits that dimerize to form the active enzyme, which in turns cleaves PARP. […] A further assessment of apoptotic INS-1 cell death was performed using TUNEL assays to detect nuclear DNA fragmentation (a consequence of cell apoptosis) in situ.
INS-1 cells were seeded in 60-mm dishes at 8×10^5 cells/dish and treated for the indicated times. Cells were then washed with PBS and lysed with lysis buffer (Cell Signaling Technology, Danvers, Mass.) containing EDTA (Thermo, Ill.) and phosphatase inhibitors (Thermo). Aliquots of 20 μg total protein were separated on 7% SDS-PAGE gels (Life Technologies) and transferred to PVDF membranes (Life Technologies). […]

INS2 mRNA = test: qRT-PCR of INS2 mRNA in Tm-treated INS-1 cells; conditions: Tm co-treatment, 24 h
Description: (A-D) INS-1 cells were treated with or without Tm (0.1 m/mL) in the presence of 13d at indicated concentrations or DMSO for 24 h. The mRNA levels of INS1 (A), INS2 (B), PDX1 (C), and MafA (D), were analyzed by qRT-PCR. Relative mRNA levels were normalized against the housekeeping gene Cyclophilin A using the comparative CT method. The results are the means of 3 replicate wells and are representative of 3 independent experiments. * P<0.05 and ** P<0.01 compared with Tm treatment alone. Bars indicate SD. (E) Insulin secretion by INS-1 cells incubated with 1.7 mM and 20 mM glucose in the presence or absence of Tm (0.1 μg/mL) and 13d. Secreted insulin was measured by ELISA after 24 h treatment. * P<0.05. The amount of insulin secreted in response to 1.7 mM glucose in the absence of Tm was set to 1.0 and was normalized with total protein concentration.
INS-1 cells were seeded at 4×10^5 cells/well in 6-well plates and treated with compounds for the indicated times. […] Relative mRNA levels were normalized against the housekeeping gene Cyclophilin A and were determined by ΔΔCt calculated from the difference in ΔCt values between the target gene and Cyclophilin A with and without treatment, based on comparative CT (cycle threshold) method. […]

INS-1 cells = test: TUNEL staining of Tm-treated INS-1 cells; conditions: co-treatment with Tm, 24 h
Description: (A) INS-1 cells were treated with or without Tm (0.1 m/mL) in the presence of 13d at indicated concentrations or DMSO for 24 h. Cleaved caspase-3 and PARP were determined by Western blotting. α-Tubulin was used as a loading control. The data shown are representative of 3 independent experiments. (B) INS-1 cells were treated with or without Tm (0.1 m/mL) in the presence of 13d (0.111M) or DMSO for 48 h, and live-cell phase-contrast images were acquired (magnification 10×). The images shown are representative of 3 independent experiments. (C) TUNEL staining of INS-1 cells. INS-1 cells were treated with 0.111 g/mL of Tm with or without compound 13d for 24 h before TUNEL staining. DAPI was used as a nuclear marker. Magnification is 20×. The images shown are representative of 3 independent experiments. (D) Quantification of TUNEL staining from 20 fields of images. ** P<0.01 compared with Tm treatment alone.
To determine whether the increase in β-cell viability following treatment with 13d is caused by a suppression of apoptotic cell death, several apoptosis-related makers were measured. First, levels of cleaved caspase-3 and cleaved PARP were assayed by Western blotting. […]

Structure (SMILES): O=C(NCc1ccc(C(F)(F)F)cc1)c1cccc(CN2CCCCC2)c1 [Compound 13d, N-(4-trifluoromethylphenmethyl)-3-(N-piperidinyl)methyl benzamide]
- Tm-induced cleavage of PARP (cleaved PARP): completely or significantly diminished
- Tm-suppressed INS2 mRNA level (INS2 mRNA): completely rescued
- TUNEL-positive cells (INS-1 cells): 0.5%
